Patent US8557860B2, “Cyclopentane heptan(ENE)OIC acid, 2-heteroarylalkenyl derivatives as therapeutic agents” (Allergan, Inc., priority 2004, dated 2013)

How the values were obtained:
Format in all cases: cell-based
hFP = target: T1, hFP (Homo sapiens, UniProt P43088); test: FLIPR calcium signal study, hFP; conditions: HEK-293(EBNA) cells, recombinant human receptor, read-out: FUNCTIONAL DATA (EC50 nm) HFP
T1 construct: expressed in transfected cells; host or cells: HEK-293(EBNA)
Procedure: (§1) HEK-293(EBNA) cells, stably expressing one type or subtype of recombinant human prostaglandin receptors (prostaglandin receptors expressed: hDP/Gqs5; hEP1; hEP2/Gqs5; hEP3A/Gqi5; hEP4/Gqs5; hFP; hIP; hTP), were cultured in 100 mm culture dishes in high-glucose DMEM medium containing 10% fetal bovine serum, 2 mM 1-glutamine, 250 μg/ml geneticin (G418) and 200 μg/ml hygromycin B as selection markers, and 100 units/ml penicillin G, 100 μg/ml streptomycin and 0.25 μg/ml amphotericin B.
(§2) Cells were seeded at a density of 5×10^4 cells per well in Biocoat® Poly-D-lysine-coated black-wall, clear-bottom 96-well plates (Becton-Dickinson) and allowed to attach overnight in an incubator at 37° C. Cells were then washed two times with HBSS-HEPES buffer (Hanks Balanced Salt Solution without bicarbonate and phenol red, 20 mM HEPES, pH 7.4) using a Denley Cellwash plate washer (Labsystems). […]
(§3) Cells were excited with an Argon laser at 488 nm, and emission was measured through a 510-570 nm bandwidth emission filter (FLIPR™, Molecular Devices, Sunnyvale, Calif.). […] The peak increase in fluorescence intensity was recorded for each well. […] The peak fluorescence change in each drug-containing well was then expressed relative to the controls. […]

hEP3A/Gqi5 = target: T2, hEP3A/Gqi5 (Homo sapiens, UniProt P43115); test: FLIPR calcium signal study, hEP3A/Gqi5; conditions: HEK-293(EBNA) cells, recombinant human receptor, read-out: FUNCTIONAL DATA (EC50 nm) HEP3A
T2 construct: expressed in transfected cells; host or cells: HEK-293(EBNA)
T2 sequence (P43115 1-390): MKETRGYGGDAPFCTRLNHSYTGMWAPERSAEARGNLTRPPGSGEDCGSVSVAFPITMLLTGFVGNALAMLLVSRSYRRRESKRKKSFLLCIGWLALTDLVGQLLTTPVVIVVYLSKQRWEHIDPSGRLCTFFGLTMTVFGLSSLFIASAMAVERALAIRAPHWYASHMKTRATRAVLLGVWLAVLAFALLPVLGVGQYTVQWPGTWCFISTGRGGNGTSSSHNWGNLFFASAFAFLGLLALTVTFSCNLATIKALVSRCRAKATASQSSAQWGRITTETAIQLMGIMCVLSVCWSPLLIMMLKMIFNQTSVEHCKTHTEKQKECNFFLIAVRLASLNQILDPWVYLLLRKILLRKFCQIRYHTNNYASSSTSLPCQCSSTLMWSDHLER
Procedure: as §1
(§4) Cells were seeded at a density of 5×10^4 cells per well in Biocoat® Poly-D-lysine-coated black-wall, clear-bottom 96-well plates (Becton-Dickinson) and allowed to attach overnight in an incubator at 37° C. Cells were then washed two times with HBSS-HEPES buffer (Hanks Balanced Salt Solution without bicarbonate and phenol red, 20 mM HEPES, pH 7.4) using a Denley Cellwash plate washer (Labsystems). After 45 minutes of dye-loading in the dark, using the calcium-sensitive dye Fluo-4 AM at a final concentration of 2 μM, plates were washed four times with HBSS-HEPES buffer to remove excess dye leaving 100 μl in each well. Plates were re-equilibrated to 37° C. for a few minutes.
(§5) Cells were excited with an Argon laser at 488 nm, and emission was measured through a 510-570 nm bandwidth emission filter (FLIPR™, Molecular Devices, Sunnyvale, Calif.). Drug solution was added in a 50 μl volume to each well to give the desired final concentration. The peak increase in fluorescence intensity was recorded for each well. On each plate, four wells each served as negative (HBSS-HEPES buffer) and positive controls (standard agonists: BW245C (hDP); PGE2 (hEP1; hEP2/Gqs5; hEP3A/Gqi5; hEP4/Gqs5); PGF2α (hFP); carbacyclin (hIP); U-46619 (hTP), depending on receptor). The peak fluorescence change in each drug-containing well was then expressed relative to the controls.
(§6) Compounds were tested in a high-throughput (HTS) or concentration-response (CoRe) format. […]

hTP = target: T3, hTP (Homo sapiens, UniProt P21731); test: FLIPR calcium signal study, hTP; conditions: HEK-293(EBNA) cells, recombinant human receptor, read-out: FUNCTIONAL DATA (EC50 nm) HTP
T3 construct: expressed in transfected cells; host or cells: HEK-293(EBNA)
T3 sequence (P21731 1-343): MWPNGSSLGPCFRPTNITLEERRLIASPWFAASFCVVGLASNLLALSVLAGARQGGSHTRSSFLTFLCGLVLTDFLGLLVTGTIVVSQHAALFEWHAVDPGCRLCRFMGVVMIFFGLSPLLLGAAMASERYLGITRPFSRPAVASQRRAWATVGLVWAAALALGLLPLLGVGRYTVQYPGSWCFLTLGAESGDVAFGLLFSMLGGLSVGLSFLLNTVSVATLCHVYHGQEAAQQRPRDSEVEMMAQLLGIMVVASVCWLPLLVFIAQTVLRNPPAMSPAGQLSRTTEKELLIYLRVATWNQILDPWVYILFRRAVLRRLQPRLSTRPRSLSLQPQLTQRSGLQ
Procedure: as §1, §4, §5, §6

hEP1 = target: T4, hEP1 (Homo sapiens, UniProt P34995); test: FLIPR calcium signal study, hEP1; conditions: HEK-293(EBNA) cells, recombinant human receptor, read-out: FUNCTIONAL DATA (EC50 nm) HEP1
T4 construct: expressed in transfected cells; host or cells: HEK-293(EBNA)
T4 sequence (P34995 1-402): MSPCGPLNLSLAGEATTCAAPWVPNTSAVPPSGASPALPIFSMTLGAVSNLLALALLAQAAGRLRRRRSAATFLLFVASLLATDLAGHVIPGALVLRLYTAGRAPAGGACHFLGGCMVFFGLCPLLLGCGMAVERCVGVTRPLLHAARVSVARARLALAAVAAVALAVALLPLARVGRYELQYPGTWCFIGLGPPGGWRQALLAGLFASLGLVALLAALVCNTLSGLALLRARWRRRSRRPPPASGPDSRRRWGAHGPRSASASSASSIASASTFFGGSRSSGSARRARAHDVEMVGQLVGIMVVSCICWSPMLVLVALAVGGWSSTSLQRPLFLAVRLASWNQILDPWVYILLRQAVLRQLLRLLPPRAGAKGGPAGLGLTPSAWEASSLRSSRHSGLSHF
Procedure: as §1, §2, §3

hEP4/Gqs5 = target: T5, hEP4/Gqs5 (Homo sapiens, UniProt P35408); test: FLIPR calcium signal study, hEP4/Gqs5; conditions: HEK-293(EBNA) cells, recombinant human receptor, read-out: FUNCTIONAL DATA (EC50 nm) HEP4
T5 construct: expressed in transfected cells; host or cells: HEK-293(EBNA)
T5 sequence (P35408 whole entry): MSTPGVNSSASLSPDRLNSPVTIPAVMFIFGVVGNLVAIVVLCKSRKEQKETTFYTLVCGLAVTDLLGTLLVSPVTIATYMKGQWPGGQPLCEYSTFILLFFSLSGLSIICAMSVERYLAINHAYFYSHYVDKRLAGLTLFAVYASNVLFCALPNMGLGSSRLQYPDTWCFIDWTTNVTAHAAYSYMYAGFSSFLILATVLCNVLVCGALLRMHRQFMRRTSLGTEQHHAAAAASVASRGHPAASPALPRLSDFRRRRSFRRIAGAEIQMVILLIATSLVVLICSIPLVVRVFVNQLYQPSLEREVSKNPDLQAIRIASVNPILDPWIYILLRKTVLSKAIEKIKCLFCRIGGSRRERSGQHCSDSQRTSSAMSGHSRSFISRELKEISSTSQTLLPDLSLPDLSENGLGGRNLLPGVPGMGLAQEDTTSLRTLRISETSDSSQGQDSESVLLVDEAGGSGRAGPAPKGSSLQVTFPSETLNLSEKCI
Procedure: as §1, §2, §3

T1 sequence (P43088 whole entry): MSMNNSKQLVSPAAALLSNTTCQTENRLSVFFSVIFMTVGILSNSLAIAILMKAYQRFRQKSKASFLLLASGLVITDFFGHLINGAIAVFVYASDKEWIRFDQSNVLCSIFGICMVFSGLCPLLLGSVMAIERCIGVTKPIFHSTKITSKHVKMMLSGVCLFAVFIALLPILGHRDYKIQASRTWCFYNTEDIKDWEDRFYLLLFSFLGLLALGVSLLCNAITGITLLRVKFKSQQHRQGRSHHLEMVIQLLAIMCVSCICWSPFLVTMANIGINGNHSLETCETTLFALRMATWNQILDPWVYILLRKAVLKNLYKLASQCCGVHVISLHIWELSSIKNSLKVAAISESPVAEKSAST

SMILES	EC50 (hFP) [µM]	EC50 (hEP3A/Gqi5) [µM]	EC50 (hTP) [µM]	EC50 (hEP1) [µM]	EC50 (hEP4/Gqs5) [µM]
COC(=O)CCC/C=C\C[C@H]1C(O)CC[C@@H]1/C=C/[C@@H](O)CCc1cc(Br)c(C)s1 (single isomer, unassigned)	2.07	> 100	1.87	–	–
Cc1sc(CC[C@H](O)/C=C/[C@H]2CCC(O)[C@@H]2C/C=C\CCCC(=O)O)cc1Br (single isomer, unassigned) [drawing 39]	–	0.793	0.096	> 100	> 100
Cc1sc(CC[C@H](O)/C=C/[C@H]2CCC(O)[C@@H]2C/C=C\CCCC(=O)O)cc1Br (single isomer, unassigned) [drawing 40]	> 100	> 100	> 100	–	0.832
